Measured values: patent EP0565593B1, “REDUCING PESTICIDAL INTERACTIONS IN CROPS” (priority 1990, dated 1992)
Values joined by “and” are separate entries in the source; they are usually repeats but may differ in a detail not shown here. Identical values can stand only once. Like-named read-outs stand apart in the source and are kept apart here.

Experiments:
[1] = tested on: Corn; assay: Multi-crop greenhouse test, herbicide POE (Examples 62-64; Tables 61-63); type: in vivo; conditions: COUNTER 15G and BEACON; Example 62
Experimental: (§1) Tests according to this invention in various crops indicate widespread application of the invention. In Examples 62-66 below are described tests with a variety of herbicides contacted with COUNTER® 15G in the presence and absence of MON-7400 (Antidote No. 12); MON-13900 (No. 1); MON-4660 (No. 16) and flurazole (No. 16). Those tests were conducted according to Procedures IV or V described above and illustrated further in other foregoing examples. Plants used in all tests were, for crops (as abbreviated in parentheses); cotton (COTT); soybean (SOBE); CORN, grain sorghum (GRSO); wheat (WHEA) and RICE, and the weeds giant foxtail (GIFT) and velvetleaf (VELE). The data in the tables below represent averages of two replications.
(§2) In this test the crops and weeds were planted 1.3 cm deep in 13.7 cm X 27.7 cm pans containing Dupo silt loam soil. The test safeners were applied in acetone solution and COUNTER 15G as dry granules to soil cover layers and incorporated by shaking in a bag. Treated cover layers were placed on seeded pans which were transferred to greenhouse benches and subirrigated. Herbicide was applied POE six (6) days after PPI initiation and observations of plant injury made ten (10) days later; results are shown in Table 61. The herbicide used in this example was BEACON (No. 8).
The test procedure described in Example 62 was repeated using ACCENT® (Herbicide No. 7) as the herbicide; the biocide and safeners were the same.

[2] = tested on: RICE; assay: Multi-crop greenhouse test, soil-applied (Examples 65, 66; Tables 64, 65); type: in vivo
Experimental: as §1, §2
(§3) In another test in the several crops and weeds used in this test series, the herbicidal component was MON-12000 (No. 1); the other components were the same. the procedure used in this test was the same as that described in Example 62, modified to use a light overhead irrigation (about 0.32 cm/day) during days 4-7 of the test. Table 64 […]

[3] = tested on: Giant foxtail (GIFT); assay: as above; type: in vivo
Experimental: as §1, §2, §3

[4] = tested on: soybean (SOBE); assay: as above; type: in vivo
Experimental: as §1, §2, §3

[5] = tested on: Velvetleaf (VELE); assay: as above; type: in vivo, Abutilon theophrasti
Experimental: as §1, §2, §3

[6] = tested on: Velvetleaf (VELE); type: in vivo, Abutilon theophrasti
[7] = tested on: Velvetleaf (VELE); assay: Greenhouse test Procedure VII (same examples); type: in vivo, Abutilon theophrasti
Source text: This procedure describes interaction among herbicide, biocide and antidote when the biocide and the antidote is applied to a soil furrow containing crop seed before emergence of the crop and the herbicide is applied after emergence of the crop and weeds. The soil and planting depth was described in Procedure IV. The containers for comparison, the biocide and antidote applications to soil furrows were described in Procedure VI. In this procedure, the seed beds of the first, second, third and fourth containers are covered by soil layers not treated with herbicide. The containers were then placed on a bench in a greenhouse and subirrigated as required for the duration of the test. The herbicide, dispersed or dissolved in water containing 0.25% v/v nonionic surfactant (X-77) was applied by a track sprayer (187 L/ha) to the emerged plants of the second, third and fourth containers about five days after planting. All treatments were run in duplicate. Plant response was observed according to Procedure IV. Variations in this procedure will be noted in the examples.
In this example, tests were conducted according to Procedure VII for the POE application of the herbicides following in-furrow application of COUNTER® 15G insecticide (BIOCIDE No. 1) and the antidote on the pre-planted test seeds. In this test, the herbicides were Nos. 1 (MON-12000), 10 (ALLY®) and #4 (HARMONY®) and the Antidote Nos. 1, 7, 12 and 33.
These in-furrow treatments comprised a 50-50 mix of blended granules of COUNTER with and without 5G granular antidotes at 7.4 + 7.4 mg/cm or 1.1 + 0.37 mg active ingredient (a.i.)/cm. The in-furrow initiation of the test was followed five (5) days later with POE application of the herbicides; observations were made eight (8) days later. Table 38 […]

[8] = Table 64, Herb. No. 1 0.018 Kg/Ha + Biocide No. 1 8.96 Kg/Ha + Antidote 4.48 Kg/Ha
[9] = Table 64, Herb. No. 1 0.07 Kg/Ha + Biocide No. 1 8.96 Kg/Ha + Antidote 4.48 Kg/Ha
[10] = Table 64, Herb. No. 1 0.28 Kg/Ha + Biocide No. 1 8.96 Kg/Ha + Antidote 4.48 Kg/Ha
[11] = Table 65, Herb. No. 1 0.018 Kg/Ha + Biocide No. 1 8.96 Kg/Ha + Antidote 4.48 Kg/Ha
[12] = Table 65, Herb. No. 1 0.07 Kg/Ha + Biocide No. 1 8.96 Kg/Ha + Antidote 4.48 Kg/Ha
[13] = Table 65, Herb. No. 1 0.28 Kg/Ha + Biocide No. 1 8.96 Kg/Ha + Antidote 4.48 Kg/Ha
[14] = Antidote 4.48 + Biocide No. 1 8.96 Kg/Ha PPI, Herb. No. 8 0.07, 5 DAP, before herbicide application
[15] = Antidote 4.48 + Biocide No. 1 8.96 Kg/Ha PPI, Herb. No. 8 0.07 POE, 13 DAP
[16] = Antidote 4.48 + Biocide No. 1 8.96 Kg/Ha PPI, Herbicide No. 7 0.28 POE, 13 days after planting
[17] = Herb. […], 5 DAP, before herbicide application
[18] = Table 14: Herbicide No. 7 (ACCENT) 0.84 Kg/Ha POE + Biocide No. 2 8.96 Kg/Ha PPI + antidote 4.48 Kg/Ha PPI, 13 days after planting, 8 days after herbicide
[19] = […], 13 days after planting, 8 days after herbicide
[20] = […], observed 10 days after herbicide application
[21] = Antidote + Biocide No. 1 in furrow, Herbicide No. 1 0.14 Kg/Ha POE, 8 days after POE
[22] = Antidote + Biocide No. 1 in furrow, Herbicide No. 4 0.17 Kg/Ha POE, 8 days after POE
[23] = Antidote + Biocide No. 1 in furrow, Herbicide No. 5 0.07 Kg/Ha POE, 8 days after POE
[24] = Antidote + Biocide No. 1 in furrow, Herbicide No. 6 0.01 Kg/Ha POE
[25] = Antidote + Biocide No. 1 in furrow, Herbicide No. 7 0.56 Kg/Ha POE, 8 days after POE
[26] = Antidote + Biocide No. 1 in furrow, Herbicide No. 9 0.009 Kg/Ha POE
[27] = Antidote + Biocide No. 1 in furrow, Herbicide No. 10 0.002 Kg/Ha POE, 8 days after POE
[28] = Antidote + Biocide No. 1 in furrow, Herbicide No. 15 0.0044 Kg/Ha POE, 8 days after POE
[29] = Antidote + Biocide No. 1 in furrow, Herbicide No. 16 0.01 Kg/Ha POE
[30] = Antidote + Biocide No. 1 in furrow, Herbicide No. 18 0.0044 Kg/Ha POE
[31] = Antidote + Biocide No. 1 in furrow, Herbicide No. 19 0.28 Kg/Ha POE
[32] = Antidote + Biocide No. 1 in furrow, Herbicide No. 21 0.14 Kg/Ha POE
[33] = Antidote + Biocide No. 1 in furrow, Herbicide No. 23 0.0006 Kg/Ha POE

CC1(C)OC(c2ccco2)CN1C(=O)C(Cl)Cl (centres unmarked) [Antidote No. 1, Oxazolidine, 3-(dichloroacetyl)-2,2-dimethyl-5-(2-furanyl)-]
corn injury [1]: effectively reduced

COC(=O)COC(c1ccccc1)c1ccccc1 [compound 12]
% Inhibition RICE [2, 8]: 0%
% Inhibition RICE [2, 9]: 10%
% Inhibition RICE [2, 10]: 10%
% Inhibition RICE [2, 11]: 0%
% Inhibition RICE [2, 12]: 20%
% Inhibition RICE [2, 13]: 70%
% Inhibition GIFT [3, 8]: 30%
% Inhibition GIFT [3, 9]: 70%
% Inhibition GIFT [3, 10]: 75%
% Inhibition GIFT [3, 11]: 25%
% Inhibition GIFT [3, 12]: 80%
% Inhibition GIFT [3, 13]: 85%
% Inhibition SOBE [4, 8]: 5%
% Inhibition SOBE [4, 9]: 70%
% Inhibition SOBE [4, 10]: 80%
% Inhibition SOBE [4, 11]: 0%
% Inhibition SOBE [4, 12]: 0%
% Inhibition SOBE [4, 13]: 15%
% Inhibition VELE [5, 8]: 50%
% Inhibition VELE [5, 9]: 85%
% Inhibition VELE [5, 10]: 95%
% Inhibition VELE [5, 11]: 0%
% Inhibition VELE [5, 12]: 75%
% Inhibition VELE [5, 13]: 85%
% Inhibition 5 DAP VELE [6, 14]: 25%
% Inhibition 13 DAP VELE [6, 15]: 90%
% Inhibition VELE [6, 16]: 65%
% Inhibition 5 DAP VELE [6, 17]: 0%
% Inhibition 13 DAP VELE ([6]; Herb. […], 13 DAP, after herbicide application): 90%
% Inhibition VELE [6, 18]: 70%
% Inhibition VELE [6, 19]: 75%
% Inhibition VELE ([6]; […], observed 8 days later (Table 32)): 85%
% Inhibition VELE ([6]; […], observed 8 days later (Table 33)): 75%
% Inhibition VELE [6, 20]: 90%
% Inhibition 5 DAP VELE ([6]; in vivo): 20%
% Inhibition 13 DAP VELE ([6]; in vivo): 85%
% Inhibition VELE ([6]; in vivo): 70% and 65% and 85% and 75% and 90% and 80%
% Inhibition VELE [7, 21]: 90%
% Inhibition VELE [7, 22]: 85%
% Inhibition VELE [7, 23]: 85%
% Inhibition VELE [7, 24]: 65%
% Inhibition VELE [7, 25]: 75%
% Inhibition VELE [7, 26]: 85%
% Inhibition VELE [7, 27]: 90%
% Inhibition VELE [7, 28]: 75%
% Inhibition VELE [7, 29]: 25%
% Inhibition VELE [7, 30]: 70%
% Inhibition VELE [7, 31]: 60%
% Inhibition VELE [7, 32]: 85%
% Inhibition VELE [7, 33]: 65%

COC(=O)COC(c1ccccc1)c1ccccc1 [Antidote No. 12, Acetic acid, (diphenylmethoxy)-, methyl ester]
corn injury [1]: effectively reduced

CC1(C)OC(c2ccco2)CN1C(=O)C(Cl)Cl (centres unmarked) [compound 1]
% Inhibition RICE [2, 8]: 0%
% Inhibition RICE [2, 9]: 10%
% Inhibition RICE [2, 10]: 25%
% Inhibition RICE [2, 11]: 10%
% Inhibition RICE [2, 12]: 25%
% Inhibition RICE [2, 13]: 95%
% Inhibition GIFT [3, 8]: 50%
% Inhibition GIFT [3, 9]: 70%
% Inhibition GIFT [3, 10]: 85%
% Inhibition GIFT [3, 11]: 40%
% Inhibition GIFT [3, 12]: 80%
% Inhibition GIFT [3, 13]: 95%
% Inhibition SOBE [4, 8]: 35%
% Inhibition SOBE [4, 9]: 75%
% Inhibition SOBE [4, 10]: 70%
% Inhibition SOBE [4, 11]: 0%
% Inhibition SOBE [4, 12]: 0%
% Inhibition SOBE [4, 13]: 5%
% Inhibition VELE [5, 8]: 65%
% Inhibition VELE [5, 9]: 85%
% Inhibition VELE [5, 10]: 95%
% Inhibition VELE [5, 11]: 10%
% Inhibition VELE [5, 12]: 75%
% Inhibition VELE [5, 13]: 90%
% Inhibition 5 DAP VELE [6, 14]: 0%
% Inhibition 13 DAP VELE [6, 15]: 90%
% Inhibition VELE [6, 16]: 70%
% Inhibition 5 DAP VELE [6, 17]: 0%
% Inhibition VELE [6, 18]: 65%
% Inhibition VELE [6, 19]: 70%
% Inhibition VELE ([6]; […], observed 9 days later (Table 29)): 90%
% Inhibition VELE ([6]; […], observed 9 days later (Table 30)): 75%
% Inhibition VELE [6, 20]: 80%
% Inhibition 5 DAP VELE ([6]; in vivo): 10%
% Inhibition 13 DAP VELE ([6]; in vivo): 90%
% Inhibition VELE ([6]; in vivo): 75% and 65% and 80% and 70% and 85%
% Inhibition VELE [7, 21]: 95%
% Inhibition VELE [7, 22]: 90%
% Inhibition VELE [7, 23]: 95%
% Inhibition VELE [7, 24]: 60%
% Inhibition VELE [7, 25]: 75%
% Inhibition VELE [7, 26]: 90%
% Inhibition VELE [7, 27]: 90%
% Inhibition VELE [7, 28]: 75%
% Inhibition VELE [7, 29]: 35%
% Inhibition VELE [7, 30]: 65%
% Inhibition VELE [7, 31]: 65%
% Inhibition VELE [7, 32]: 85%
% Inhibition VELE [7, 33]: 60%
% Inhibition VELE ([7]; Herbicide No. 1 0.14 Kg/Ha POE + Biocide No. 1 in furrow, no antidote, 8 days after POE): 90%
% Inhibition VELE ([7]; Herbicide No. 1 0.14 Kg/Ha POE alone, 8 days after POE): 85%

O=C(OCc1ccccc1)c1sc(Cl)nc1C(F)(F)F [Antidote No. 7, 5-Thiazolecarboxylic acid, 2-chloro-4-(trifluoromethyl)-, (phenylmethyl) ester]
corn injury [1]: effectively reduced
